Experimental findings from patent US20170319562A1, “Compositions and Methods for Extended Therapy with Aminopyridines” (Acorda Therapeutics, Inc., priority 2009, published 2017) are described below.

SMILES strings stand for the structures.

Data set [1] can be described thus: Single oral dose of 14C-labeled 4-aminopyridine (1 mg/kg) in rats. Particulars: for tissue-to-blood ratio: oral dose; for AUC / Cmax / Tmax / half-life: rat, plasma, po, 1 mg/kg. The protocol: (§1) Studies were performed in rats and dogs using “C-labeled 4-aminopyridine (1 mg/kg) given as a single oral gavage dose in solution.
In a single-dose study, rats were administered “C-labeled 4-aminopyridine (1 mg/kg) p.o. Three animals per time point were sacrificed 1, 3, 8, and 24 hours post-dose. Blood was collected and tissues were excised for determination of radioactivity.

Data set [2] can be described thus: Single oral dose of 14C-labeled 4-aminopyridine (1 mg/kg) in dogs. It counts as in vivo. The following applies: dog, plasma, 1 mg/kg oral. The protocol:
as §1

Take `Nc1ccncc1` [^14C-4-Aminopyridine]: the “radioactivity in tissue, percentage of the dose” value in data set [1] (blood, one hour post-dose) came out at 0.7%; in data set [1] (carcass, 3 hours post-dose), 15.4%; in data set [1] (carcass, one hour post-dose), 51%; in data set [1] (kidney, one hour post-dose) it was 1.6%; in data set [1] (liver, one hour post-dose), 2.6%. Moreover, the tissue-to-blood ratio in data set [1] (cerebellum) came out at 1.48; in data set [1] (cerebrum) it was 3.07. The AUC in data set [1] (female) stood at 506 ± 63.3 ng·h/mL; in data set [1] (male) it was 498 ± 17.6 ng·h/mL; in data set [2] (female, females), 1920 ± 150 ng·h/mL; in data set [2] (male, males) it was 2030 ± 406 ng·h/mL. Also, the Cmax in data set [1] (female) was 168 ± 15.7 ng/g; in data set [1] (male), 189 ± 20.2 ng/g; in data set [2] (female, females) it was 635 ± 103 ng/g; in data set [2] (male, males), 574 ± 123 ng/g. For the same compound, the Tmax in data set [1] (female) is 0.5 h; in data set [1] (male), 1 h; in data set [2] (female, females), 0.8 ± 0.3 h; in data set [2] (male, males), 1 h. Moreover, the half-life in data set [1] (female) is 1.4 ± 0.17 h; in data set [1] (male) it was 1.1 ± 0.04 h; in data set [2] (female, females), 1.8 ± 0.04 h; in data set [2] (male, males), 2.1 ± 0.14 h. In addition, in data set [1] (one hour post-dose), the “dose accounted for in total” value was 58.3%.
